Data taken from US8138357B2, “Compounds and their salts specific to the PPAR receptors and the EGF receptors and their use in the medical field” (Giuliani International Limited, priority 2005, dated 2012).
“Also recorded” adds a separate entry of the source.

Tests used:
PPARγ [1] = target: T1, PPARγ (Homo sapiens, UniProt P37231); experiment: PPARγ activation, PPRE (2XCYP) luciferase reporter in transfected HT-29 STD cells (Example 8); assay type: cell-based; conditions: 30 mM, 24 hours, HT-29 STD transfected with 2XCYP
T1 construct: HT-29 STD cells were transiently transfected using the Effectene™ transfection reagent; endogenous in cells; host or cells: HT-29 STD (human colon carcinoma)
T1 sequence (P37231 1-505): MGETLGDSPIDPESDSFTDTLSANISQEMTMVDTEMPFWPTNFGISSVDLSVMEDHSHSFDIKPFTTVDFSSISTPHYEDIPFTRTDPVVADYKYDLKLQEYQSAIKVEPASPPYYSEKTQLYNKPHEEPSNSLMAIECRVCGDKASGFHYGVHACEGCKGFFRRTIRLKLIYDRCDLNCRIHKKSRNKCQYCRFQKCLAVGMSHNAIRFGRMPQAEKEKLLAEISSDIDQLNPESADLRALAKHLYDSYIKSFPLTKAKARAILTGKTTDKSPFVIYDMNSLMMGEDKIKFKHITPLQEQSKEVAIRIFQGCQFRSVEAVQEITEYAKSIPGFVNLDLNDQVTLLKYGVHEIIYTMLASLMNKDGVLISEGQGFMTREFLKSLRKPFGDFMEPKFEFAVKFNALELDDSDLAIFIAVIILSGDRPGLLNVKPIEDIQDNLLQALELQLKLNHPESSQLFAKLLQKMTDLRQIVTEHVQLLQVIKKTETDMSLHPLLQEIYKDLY
Description: HT-29 STD cells were transiently transfected using the Effectene™ transfection reagent (Qiagen™) according to instructions from the manufacturer. To test PPARγ activation, we performed transfection with 500 ng of a minimal promoter construct containing two copies of PPRE obtained from the cytochrome p450 4A (2XCYP) (1). The renilla luciferase plasmid ([…]) was also transfected as an internal control for monitoring transfection efficiency and for normalizing the firefly luciferase activity. Transfected cells were left for 48 hours incubation at 37° C. […] The pH of the drug solutions was adjusted to 7.4 with NaOH. Total cell extracts were prepared using the Passive Lysis Buffer (Promega™, Madison, Wis.). Luciferase activity was assayed in 20 μl of the extract using the Promega™ Dual Luciferase assay system according to the manufacturer's protocol. Transfections were assayed in triplicate in at least three separate experiments. The luciferase activity was expressed as fold of the activity obtained in cells treated with the different molecules divided by luciferase activity from non-stimulated cells.

PPARγ [2] = experiment: PPARγ protein expression by western blot in HT-29 cells; assay type: cell-based, human; conditions: 30 mM, 24 hours, HT-29, relative to β-actin
Description: The total proteins were obtained by cell homogenization in an extraction buffer consisting of PBS with 2% Triton™, Phenyl Methyl Sulphonyl Fluoride (PMSF) 100 mM and a classical protease inhibitor cocktail (2). The total proteins were then separated by polyacrylamide gel electrophoresis and electroblotted. Polyvinylidendifluoride (PVDF) membranes were incubated overnight with rabbit polyclonal primary antibody directed against PPARγ (dilution 1/500, TEBU, Le Perray en Yveline, France). β-actin was detected using a rabbit monoclonal primary antibody diluted at 1/10,000 (Sigma). Immunodetection with a secondary peroxidase-conjugated antibody (1/1000, Dako™, Trappes, France) and chemiluminescence was performed according to the manufacturer's protocol (ECL™, Amersham Pharmacia Biotech™, Orsay, France). Optical density values of PPARγ were given for each condition in proportion to the quantity of the internal control β-actin in the same sample (2).

HT-29 STD cells [3] = experiment: Cell proliferation by nuclear Ki-67 immunostaining; assay type: cell-based; conditions: Homo sapiens, 30 mM, 24 h, compared to untreated cells, read-out: inhibition of cell proliferation (Ki-67 staining)
Description: After 24 h of culture, HT-29 STD cells were treated during 24 h with the new molecules 13, 14, 17, 26 and 31, at 30 mM. […] The pH of the drug solutions was adjusted to 7.4 with NaOH. Cells were fixed in PFA 4%, permeabilized in PBS containing 0.1% Triton X-100™ at 4° C. and then incubated with goat normal serum and blocking buffer (1% BSA in PBS) to minimize non-specific adsorption of the antibody. Cell proliferation was assessed by a nuclear Ki-67 staining using mouse monoclonal primary antibody directed against Ki-67 (dilution 1:50 overnight; ZYMED™ Clinisciences™, Montrouge, France). […] Nuclei were stained with Hoescht 33342 solution (0.125 mg/mL) (Sigma-Aldrich™) and visualized under a fluorescence microscope (Leica™, Bensheim, Germany). Negative controls consisted of staining with a non-specific mouse serum instead of the specific antibody. Counts of at least 500 cells/sample were systematically performed blindly in one experiment. The results were expressed as the mean±SEM of the number of stained cells.

HT-29 STD cells [4] = experiment: Detection of apoptosis by TUNEL assay; assay type: cell-based, human; conditions: 30 mM, 24 h
Description: After 24 h of culture, HT-29 STD cells were treated during 24 h with the new molecules 13, 14, 17, 26 and 31, at a concentration of 30 mM. […] The pH of the drug solutions was adjusted to 7.4 with NaOH. Cells undergoing apoptosis were identified by enzymatic labelling of DNA strands using a terminal transferase dUTP nick end labelling assay (TUNEL assay, Roche Diagnostics™, Meylan, France). Counts of at least 500 cells/sample were systematically performed blindly in one experiment. The results were expressed as the mean±SEM of the number of stained cells.

DLD-1 cells = experiment: Cell growth by colorimetric BrdU incorporation assay, DLD-1; assay type: cell-based; conditions: Homo sapiens, 48 hours
Description: (§1) HT-29 and DLD-1 cells were cultured in McCoy and RPMI1640 media respectively, supplemented with 10% fetal bovine serum (FBS), 1% penicillin/streptomycin (P/S) and 50 μg/ml gentamycin. HT-115 were cultured in DMEM medium supplemented with 15% FBS and 1% P/S. Cells were maintained in a humidified incubator at 37° C., in the presence of 5% CO2.
(§2) For cell growth assays, single-cell suspensions were plated at 2×10^3 cells/well (4×10^3 cells/well for HT115) in 96-well culture dishes in medium containing 0.5% FBS and allowed to adhere. The non-adherent cells were then removed, and fresh medium containing 0.5% FBS was added into each well. Cells were cultured in the presence or absence of the specified substances. Each substance was dissolved as a 25 mM stock solution in culture medium containing 0.5% FBS, and the pH of each stock solution was adjusted to 7.4, if necessary, with NaOH. Substances were used at a final concentration ranging from 0.5 to 10 mM. Cell proliferation was determined by measuring the incorporation of 5-bromo-2′-deoxyuridine (BrdU) into DNA using a commercially available cell proliferation kit (Roche Diagnostics™, Monza, Italy). BrdU was added to the cell cultures during the last 6 hours of incubation, and the level of BrdU-positive cells was assessed after 48 h culture by enzyme-linked immunosorbent assay (ELISA).
(§3) Optical density (OD) was determined at 450 nm using an ELISA reader. Experiments were performed in triplicate and the results are reported as the mean±standard deviation (SD).

HT-29, HT-115 and DLD-1 = experiment: Colon cancer cell growth by BrdU assay, three human colon carcinoma cell lines; assay type: cell-based; conditions: final concentration 10 mM, 48 h
Description: For this purpose, three human colon carcinoma cell lines (i.e. HT-29, HT-115 and DLD-1) were used. These cell types were selected on the basis of the cyclooxigenase-2 (COX-2) expression. Indeed, HT-115 cells express a biologically active COX-2, HT-29 cells express a non-functional COX-2 isoform, and DLD-1 are COX-2-deficient cells.
as §1, §2, §3

`CC(C)Oc1ccc(N)cc1C(=O)O` [compound 31, 5-amino-2-isopropoxybenzoic acid] was tested, and the “reporter gene activity, factor of increase relative to untreated cells” value (PPARγ [1]) was “two-fold; also recorded: about twice”, the “induction of PPARγ protein levels quantified by western blot” value (PPARγ [2]) was 2 fold and the inhibition at 30000 µM (HT-29 STD cells [3]) was 67 to 75%. For the same compound, the “apoptosis, epithelial cells identified by TUNEL” value (HT-29 STD cells [4]) was 80%, the inhibition at 500 µM (DLD-1 cells; 0.5 mM) was 0% and the inhibition at 1000 µM (DLD-1 cells; 1 mM) was 0%. The inhibition at 2500 µM (DLD-1 cells; 2.5 mM) was 0%, the inhibition at 5000 µM (DLD-1 cells; 5 mM) was 8.8% and the inhibition at 10000 µM (DLD-1 cells; 10 mM) was 31.7%. The cell growth inhibition (HT-29, HT-115 and DLD-1) was “significantly inhibited cell growth”.
